Results on 14 compounds are retold here after ChEMBL document CHEMBL1145513, “S-adenosylmethionine-dependent protein methylation in mammalian cytosol via tyrphostin modification by catechol-O-methyltransferase” (J Biol Chem, 2007).

Activity calls are given as the source filed them. No cut-off for these calls is given here.

For the first test, the species on record is Sus scrofa. As to the kind of experiment: Activity of pig recombinant catechol-O-methyltransferase assessed per unit enzyme.
`N#CC(C#N)=Cc1cc(O)c(O)c(O)c1`: the Activity is 1.65 pmol/min.
The same measure, in the same setting: with `N#CC(C#N)=Cc1cc(O)c(O)c([N+](=O)[O-])c1` the figure was 0.05 pmol/min; with `C[C@H](NC(=O)/C(C#N)=C/c1ccc(O)c(O)c1)c1ccccc1`, 3.08 pmol/min; with `N#C/C(=C\c1ccc(O)c(O)c1)C(=O)O`, 3.67 pmol/min.
The same measure, in the same setting: with `N#C/C(=C\c1ccc(O)c(O)c1)C(=O)NCCCCc1ccccc1` the figure was 2.84 pmol/min.
Same read-out and setting: with `N#CC(C#N)=C(N)/C(C#N)=C/c1cc(O)c(O)c(O)c1` the figure was 1.79 pmol/min; with `C[C@@H](NC(=O)/C(C#N)=C/c1ccc(O)c(O)c1)c1ccccc1`, 3.06 pmol/min; with `N#C/C(=C\c1ccc(O)c(O)c1)C(=O)NCCCc1ccccc1`, 3.11 pmol/min.
As for `N#C/C(=C\c1ccc(O)c(O)c1)C(N)=S`, the Activity turned out to be 2.45 pmol/min.
For `N#C/C(=C\c1ccc(O)c(O)c1)C(N)=O`, the Activity was 2.98 pmol/min.
With `COc1c(C(C)(C)C)cc(C=C(C#N)C#N)cc1C(C)(C)C`, the Activity was found to be 0.04 pmol/min.
As to `N#CC(C#N)=Cc1ccc(O)c(O)c1`, the Activity stood at 2.44 pmol/min.
On the same count and under the same terms, with `N#CC(C#N)=Cc1ccc(O)cc1` the figure was 0.05 pmol/min; with `N#C/C(=C\c1ccc(O)c(O)c1)C(=O)NCc1ccccc1`, 3.06 pmol/min.

The species entered for the next test is Sus scrofa. Briefly: Inhibition of pig recombinant catechol-O-methyltransferase at 100 uM.
As to `N#CC(C#N)=Cc1cc(O)c(O)c([N+](=O)[O-])c1`, the outcome was Active.
